Data from patent publication US4268630A, “Microbiological production of ketones from C3 -C6 alkanes” (priority 1979, dated 1981).

Assays:
[1] = tested on: Methylobacter capsulatus Y (NRRL B-11,201); test: Oxidation of n-alkanes to methyl ketones by resting cell suspension; type: cell-based; conditions: cell suspension grown on methane
Description: (§1) The pH of the nutrient medium was adjusted to 7.0 by the addition of acid or base and 50 ml. samples of the nutrient medium were charged into a plurality of 300 ml. shaker flasks. […] The isolates had been maintained on methanol (0.4% V/V) agar plates or on agar plates under an atmosphere of methane and air having a 1:1 V/V gas ratio which had been transferred every two weeks. For growth on methanol, the medium was supplemented with 0.4% methanol. For growth on methane, the gaseous phase of the inoculated flasks was replaced with a gas mixture comprised on methane and air having a ratio of 1:1 on a V/V basis. The inoculated flasks were sealed air-tight and were incubated on a rotary shaker of orbital radius 2.5 cm. at 250 rpm and at 30° C. for two days until turbidity in the medium had developed. The cells were harvested by centrifugation at 10,000×g. at 4° C. for 30 minutes. The cell pellet was washed twice with a 0.05 M phosphate buffer at a pH of 7.0 (containing 0.02 M MgCl2). The washed cells were then suspended in a 0.05 M phosphate buffer at pH 7.0.
(§2) A 0.5 ml. sample of each washed cell suspension (2 mg. cells) was put into 10 ml. vials at 4° C. which were sealed with a rubber cap. The gaseous phase of the vials was removed with vacuum and then was replaced with a gas mixture of the substrate reactant (i.e., alkane or secondary alcohol) and oxygen at a 1:1 V/V ratio. (In the case of a liquid substrate, i.e., secondary alcohol, 10 μl of the substrate was put in the 10 ml. vials). The vials were then incubated at 30° C. on a rotary shaker at 300 rpm. Samples of product (1-3 μl) were withdrawn periodically with a microsyringe and the products were analyzed by gas chromatography (ionization flame detector column).

[2] = tested on: Methylobacterium organophilum XX; test: as above; type: cell-based; conditions: cell suspension grown on methane
Description: as §1, §2

[3] = tested on: Methylocystis parvus OBBP (NRRL B-11,198); test: as above; type: cell-based; conditions: cell suspension grown on methane
Description: as §1, §2

[4] = tested on: Methylomonas methanica SI (NRRL B-11,199); test: as above; type: cell-based; conditions: cell suspension grown on methane
Description: as §1, §2

[5] = tested on: Methylosinus trichosporium OB3b (NRRL B-11,196); test: as above; type: cell-based; conditions: cell suspension grown on methane
Description: as §1, §2

[6] = tested on: Methylococcus capsulatus Texas (ATCC 19069); test: as above; type: cell-based; conditions: cell suspension grown on methane
Description: The pH of the nutrient medium was adjusted to 7.0 by the addition of acid or base and 50 ml. samples of the nutrient medium were charged into a plurality of 300 ml. shaker flasks. The shaker flasks were inoculated with an inoculating loop of cells from an agar plate containing homogeneous colonies of the microorganisms on the plate (the purity of the isolates was confirmed by microscopic examination). The isolates had been maintained on methanol (0.4% V/V) agar plates or on agar plates under an atmosphere of methane and air having a 1:1 V/V gas ratio which had been transferred every two weeks. For growth on methanol, the medium was supplemented with 0.4% methanol. For growth on methane, the gaseous phase of the inoculated flasks was replaced with a gas mixture comprised on methane and air having a ratio of 1:1 on a V/V basis. The inoculated flasks were sealed air-tight and were incubated on a rotary shaker of orbital radius 2.5 cm. at 250 rpm and at 30° C. for two days until turbidity in the medium had developed. The cells were harvested by centrifugation at 10,000×g. at 4° C. for 30 minutes. The cell pellet was washed twice with a 0.05 M phosphate buffer at a pH of 7.0 (containing 0.02 M MgCl2). The washed cells were then suspended in a 0.05 M phosphate buffer at pH 7.0.
as §2, with “The vials were then incubated at 30° C. on a rotary shaker at 300 rpm.” left out

[7] = tested on: Methylobacterium sp. (CRL-26, NRRL-B-11,208); test: Conversion of n-alkanes to secondary alcohols by cell suspensions; type: cell-based; conditions: growth substrate Methane
Text: (§3) Both cell suspensions (particulate fraction) and cell-free particulate fraction of methane-grown methylotroph microorganisms are capable of catalyzing the conversion of C3 -C6 n-alkanes to the corresponding alcohols including secondary alcohols. The conditions for preparing the cell suspensions or the cell-free particulate fractions from methane-grown methylotroph microorganisms is the same as described above. The cell-free particulate fraction requires the presence of oxygen and NADH as an electron donor. […] Tables XVI and XVII show the conversion of C3 -C6 n-alkanes to the corresponding secondary alcohols using cell suspensions and cell-free particulate fractions, respectively, of methane-grown methylotroph microorganisms.

[8] = tested on: Methylococcus capsulatus (Texas, ATCC 19,069); test: as above; type: cell-based; conditions: growth substrate Methane
Text: as §3

[9] = tested on: Methylosinus trichosporium (OB3b, NRRL-B-11,196); test: as above; type: cell-based; conditions: growth substrate Methane
Text: as §3

[10] = tested on: cell-free secondary alcohol dehydrogenase (SADH) system; test: Cofactor requirement of cell-free soluble extracts oxidizing 2-butanol; type: biochemical
Description: To prepare the cell-free secondary alcohol dehydrogenase (SADH) system, the washed cells were disrupted with a Wave Energy Ultrasonic Oscillator, Model W201 (Wave Energy System, Inc., Newtown, Pa.) and centrifuged at 20,000× g. for 30 minutes. […] The enzyme activity was measured with a fluorescence spectrophotometer (Perkin Elmer, Model MPF 44A) by following the formation of reduced NAD (EX 340 nm, Em 460 nm). The formation of reduced NAD was also followed with an absorption spectrophotometer at 340 nm. The assay system (3 ml.) contained: potassium phosphate buffer pH 7.0; 150 μmol.; NAD 1 μmol.; a given amount of enzyme preparation; and secondary alcohol 10 μmol. The reaction was started by the addition of substrate. One unit of enzyme activity represents the reduction of one μmole NAD per minute. Protein concentrations were determined by the Lowry method (J. Biol. Chem., 193: 255-275 (1951)).

[11] = tested on: secondary alcohol dehydrogenase; test: Activity of purified yeast-derived secondary alcohol dehydrogenase; type: biochemical, Pichia sp. NRRL Y-11,328; conditions: for ability to act as electron acceptor/carrier: purified enzyme
[12] = tested on: Methylomonas albus BG8 (NRRL B-11,200); test: Oxidation of n-alkanes to methyl ketones by resting cell suspension; type: cell-based; conditions: cell suspension grown on methane
Description: as §1, §2

[13] = tested on: Methylosinus sporium 5 (NRRL B-11,197); test: as above; type: cell-based; conditions: cell suspension grown on methane
Description: as §1, §2

[14] = tested on: Methylobacter capsulatus (Y, NRRL-B-11,201); test: Conversion of n-alkanes to secondary alcohols by cell suspensions; type: cell-based; conditions: growth substrate Methane
Text: as §3

[15] = tested on: Methylomonas sp. (CRL-17, NRRL-B-11,209); test: as above; type: cell-based; conditions: growth substrate Methane
Text: as §3

[16] = tested on: Methylosinus sp. (CRL-15, NRRL-B-11,202); test: as above; type: cell-based; conditions: growth substrate Methane
Text: as §3

[17] = tested on: particulate P(40) fraction of Methylobacterium sp. (CRL-26, NRRL-B-11,222); test: Hydroxylation of n-alkanes to secondary alcohols by particulate P(40) fraction; type: biochemical
Text: as §3
(§4) ^(a) Particulate P(40) fraction was prepared as follows:
(§5) Cellsuspensions at 4° C. were disintegrated through a French
(§6) Pressure cell and centrifuged at 4000 × g. for 15 min. to remove
(§7) unbroken bacteria. The supernatant solution was then centrifuged at 40,00
(§8) × g. for 30 min. at 4° C. yielding the particulate P(40) and
(§9) soluble S(40) fractions. The products were identified by gas
(§10) chromatography and cochromatography with authentic standard.

[18] = tested on: particulate P(40) fraction of Methylococcus capsulatus (Texas, ATCC 19,069); test: as above; type: biochemical
Text: as §3, §4, §5, §6, §7, §8, §9, §10

[19] = molecular target: particulate P(40) fraction of Methylosinus sp. (CRL-15, NRRL-B-11,202) (Methylosinus trichosporium, UniProt Q50541+Q9KX50+Q9KX51); test: as above; type: biochemical
Chain of particulate P(40) fraction of Methylosinus sp. (CRL-15, NRRL-B-11,202) (Q9KX50 40-431): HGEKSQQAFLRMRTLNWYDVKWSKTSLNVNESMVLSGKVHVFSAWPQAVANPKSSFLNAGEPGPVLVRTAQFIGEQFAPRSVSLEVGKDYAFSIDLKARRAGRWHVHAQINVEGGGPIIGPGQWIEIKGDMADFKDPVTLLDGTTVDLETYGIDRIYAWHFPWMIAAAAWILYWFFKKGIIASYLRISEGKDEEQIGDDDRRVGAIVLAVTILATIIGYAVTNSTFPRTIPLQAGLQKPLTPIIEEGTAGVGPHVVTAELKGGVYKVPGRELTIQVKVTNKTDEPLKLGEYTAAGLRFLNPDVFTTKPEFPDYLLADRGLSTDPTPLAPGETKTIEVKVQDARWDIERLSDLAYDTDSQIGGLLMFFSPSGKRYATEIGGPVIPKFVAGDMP
Chain of particulate P(40) fraction of Methylosinus sp. (CRL-15, NRRL-B-11,202) (Q50541 1-252): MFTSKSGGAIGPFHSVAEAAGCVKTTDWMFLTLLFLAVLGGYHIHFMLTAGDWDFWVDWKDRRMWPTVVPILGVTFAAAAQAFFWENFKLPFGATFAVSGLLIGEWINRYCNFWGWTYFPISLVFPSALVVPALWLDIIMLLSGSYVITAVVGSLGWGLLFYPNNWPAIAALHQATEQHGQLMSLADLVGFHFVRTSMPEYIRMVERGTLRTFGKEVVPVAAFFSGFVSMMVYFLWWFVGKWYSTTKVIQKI
Chain of particulate P(40) fraction of Methylosinus sp. (CRL-15, NRRL-B-11,202) (Q9KX51 1-256): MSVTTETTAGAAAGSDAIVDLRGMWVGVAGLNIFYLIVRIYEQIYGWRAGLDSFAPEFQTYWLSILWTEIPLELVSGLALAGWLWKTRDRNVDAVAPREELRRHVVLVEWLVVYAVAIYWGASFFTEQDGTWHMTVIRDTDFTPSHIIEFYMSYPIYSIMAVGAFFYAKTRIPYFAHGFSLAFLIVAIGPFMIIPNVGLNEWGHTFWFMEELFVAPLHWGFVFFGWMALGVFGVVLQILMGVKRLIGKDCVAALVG
Text: as §3, §4, §5, §6, §7, §8, §9, §10

[20] = tested on: particulate P(40) fraction of Methylosinus trichosporium (OB3b, NRRL-B-11,196); test: as above; type: biochemical
Text: as §3, §4, §5, §6, §7, §8, §9, §10

[21] = tested on: Methylosinus trichosporium OB3b NRRL B-11,196; test: Conversion of n-alkanes to oxidation products by cell suspensions; type: cell-based; conditions: methane-grown cell suspension, pH 7.0
Description: (§11) ^(a) Cell-suspensions of methanegrown methylotroph microorganisms
(§12) indicated in 0.15 M phosphate buffer, pH 7.0 incubated in the alkanes as
(§13) indicated at 3° C. The oxidation products were determined by g.l.c

[22] = tested on: Methylococcus capsulatus CRL M1 NRRL B-11,219; test: as above; type: cell-based; conditions: methane-grown cell suspension, pH 7.0
Description: as §11, §12, §13

| SMILES | Conversion Rates, n-alkane to methyl ketone [1] [μmoles/hr/mg protein] | Conversion Rates, n-alkane to methyl ketone [2] [μmoles/hr/mg protein] | Conversion Rates, n-alkane to methyl ketone [3] [μmoles/hr/mg protein] | Conversion Rates, n-alkane to methyl ketone [4] [μmoles/hr/mg protein] | Conversion Rates, n-alkane to methyl ketone [5] [μmoles/hr/mg protein] | Conversion Rates, n-alkane to methyl ketone [6] [μmoles/hr/mg protein] | Conversion Rate, n-alkane to secondary alcohol [7] [μmoles/hr/^5 mg. protein] | Conversion Rate, n-alkane to secondary alcohol [8] [μmoles/hr/^5 mg. protein] | Conversion Rate, n-alkane to secondary alcohol [9] [μmoles/hr/^5 mg. protein] | effectiveness as cofactor for oxidation of 2-butanol [10] | ability to act as electron acceptor/carrier [11] | further results |
| --- | --- | --- | --- | --- | --- | --- | --- | --- | --- | --- | --- | --- |
| CCCCCC [n-Hexane, n-hexane] | 0.07 | 0.09 | 0.04 | 0.02 | 0.05 | 0.09 | 0.007 | 0.01 | 0.01 | – | – | – |
| CCCCC [n-Pentane, n-pentane] | 0.63 | 0.58 | 0.51 | 0.28 | 0.72 | 0.42 | 0.01 | 0.032 | 0.06 | – | – | – |
| NC(=O)c1ccc[n+]([C@@H]2O[C@H](COP(=O)([O-])OP(=O)(O)OC[C@H]3O[C@@H](n4cnc5c(N)ncnc54)[C@H](OP(=O)(O)O)[C@@H]3O)[C@@H](O)[C@H]2O)c1 [NADP, reference compound] | – | – | – | – | – | – | – | – | – | not effective | could not act as electron carrier | – |
| C[n+]1c2ccccc2nc2ccccc21 [phenazine methosulfate, reference compound] | – | – | – | – | – | – | – | – | – | not effective | could not act as electron carrier | – |
| CCC [n-Propane, n-propane] | 1.6 | 2.8 | 1.8 | 2.5 | 1.5 | 1.2 | 1.4 | 1.1 | 2.5 | – | – | Conversion Rates, n-alkane to methyl ketone [12]: 2.7 μmoles/hr/mg protein; Conversion Rates, n-alkane to methyl ketone [13]: 2.1 μmoles/hr/mg protein; Conversion Rate, n-alkane to secondary alcohol [14]: 0.20 μmoles/hr/^5 mg. protein; Conversion Rate, n-alkane to secondary alcohol [15]: 1.6 μmoles/hr/^5 mg. protein; Conversion Rate, n-alkane to secondary alcohol [16]: 2.1 μmoles/hr/^5 mg. protein; Conversion Rate, n-alkane to secondary alcohol [17]: 1.0 μmoles/hr/2.0mg. of protein; Conversion Rate, n-alkane to secondary alcohol [18]: 1.2 μmoles/hr/2.0mg. of protein; Conversion Rate, n-alkane to secondary alcohol [19]: 1.5 μmoles/hr/2.0mg. of protein; Conversion Rate, n-alkane to secondary alcohol [20]: 1.32 μmoles/hr/2.0mg. of protein; Conversion Rate to product 1-Propanol [21]: 0.4 μmoles/hr./mg./protein; Conversion Rate to product 2-Propanol [21]: 0.6 μmoles/hr./mg./protein; Conversion Rate to product Acetone [21]: 0.2 μmoles/hr./mg./protein; Conversion Rate to product Propanol [21]: 0.1 μmoles/hr./mg./protein; Conversion Rate to product 1-Propanol [22]: 0.5 μmoles/hr./mg./protein; Conversion Rate to product 2-Propanol [22]: 0.7 μmoles/hr./mg./protein; Conversion Rate to product Acetone [22]: 0.3 μmoles/hr./mg./protein; Conversion Rate to product Propanol [22]: 0.2 μmoles/hr./mg./protein |
| O=C1C(Cl)=CC(=Nc2ccc(O)cc2)C=C1Cl [dichlorophenol iodophenol, 2,6-dichlorophenol indophenol, reference compound] | – | – | – | – | – | – | – | – | – | not effective | could not act as electron carrier | – |
| N[C@@H](CCC(=O)N[C@@H](CS)C(=O)NCC(=O)O)C(=O)O [GSH, glutathione, reference compound] | – | – | – | – | – | – | – | – | – | not effective | – | inhibition of secondary alcohol dehydrogenase activity (in words) ([11]; primary alcohols tested at 10^-3 M): strongly inhibited |
| Cc1cc2nc3c(=O)[nH]c(=O)nc-3n(C[C@H](O)[C@H](O)[C@H](O)COP(=O)(O)OP(=O)(O)OC[C@H]3O[C@@H](n4cnc5c(N)ncnc54)[C@H](O)[C@@H]3O)c2cc1C [FAD, flavin adenine dinucleotide, reference compound] | – | – | – | – | – | – | – | – | – | not effective | could not act as electron carrier | – |
